From patent publication US7807368B2, “Cyclin-dependent kinase inhibitors as targets for opiod growth factor treatment” (priority 2006, dated 2010)
“Also recorded” adds a separate entry of the source.

What was measured:
SCC-1 cells [1] = assay: Growth of SCC-1 cells transfected with p16 siRNA or negative control siRNA; assay type: cell-based, human; conditions: 10^-6 M OGF; for reduction in growth: negative control siRNA-transfected SCC-1 cells
Method: The p16-targeted siRNAs (antisense:5′ […]-3′; sense (SEQ ID NO:5): 5′ […]-3′(SEQ ID NO:6) were obtained as ready-annealed, purified duplex probes (Invitrogen, Carlsbad, Calif.). For transfection, 2×10^5 cells per well were seeded in 6-well plates containing 1 ml of serum-free media without antibiotics. In each well, 20 nM of p16-siRNA or control siRNA solutions in serum-free media were added. Cells were incubated for 4 h at 37° C. prior to the addition of OGF. Cultures were incubated for additional 20 h, and then 1 ml fresh complete media either lacking or containing OGF was added. At the indicated time points, cells were collected for growth curves or Western blotting. Three or more independent experiments were conducted. The control siRNAs were purchased from Ambion.

p16/Cdk4 complex = assay: Cdk4 immunoprecipitation, p16/Cdk4 and cyclin D1/Cdk4 complexes in SCC-1 cells; assay type: cell-based, human
Method: Cell extracts were subjected to immunoprecipitation using antibodies against Cdk4 and protein A beads (Santa Cruz). Immunoprecipitates were separated on a 15% SDS-PAGE gel, and membrane blots probed with p16 antibodies (1:200), and developed using a chemiluminescence Western blotting detection system. Blots were re-probed with Cdk4 antibody (1:200). Five independent experiments were performed.

[2] = tested on: BxPC-3 human pancreatic cancer cells; assay: Growth curves of BxPC-3 cells; assay type: cell-based; conditions: 10^-6 M OGF
Method: (§1) Human pancreatic cancer cell lines BxPC-3, PANC-1, and Capan-2 were obtained from the American Type Culture Collection (Manassas, Va.), and cultured in RPMI, Dulbecco's Modified Medium, or McCoy's 5A medium, respectively. All media were supplemented with 10% fetal bovine serum, 1.2% sodium bicarbonate, and 0.25% antibiotics (5000 units/ml penicillin, 5 μg/ml streptomycin and 10 μg/ml neomycin). OGF was purchased from Sigma-Aldrich (St. Louis, Mo.), dissolved in sterile water, and used at a final concentration of 10^−6 M.
(§2) For growth curves, cells were seeded in 6-well plates at an initial density of 2×10^5 cells/well. Fresh media and OGF were added 24 hours after initial seeding, and media and OGF were replaced daily. At appropriate times, the cells were washed with PBS, trypsinized, and viable cell numbers were counted by trypan blue exclusion using a hemacytometer.

p21 = assay: Western blot of p21, p27 and Cdk2 in BxPC-3 cells; assay type: cell-based, human
Method: Synchronized cells (2×10^6) from each treatment were solubilized in 200 μl RIPA buffer (1×PBS, 10 μM IGEPAL, 1 mg/ml SDS, 5 mg/ml deoxycholic acid), containing protease and phosphatase inhibitors (2 μg/ml aprotinin, 3 mg/ml phenylmethyl sulfonyl fluoride, 1 mM sodium orthovanidate, 1 μM okadaic acid). Total protein concentrations were measured using the DC protein assay kit (Bio-Rad Laboratories, Hercules, Calif.). Equal amounts of protein (40 μg) were subjected to 10% SDS-PAGE followed by transfer of proteins onto polyvinylidene difluoride (Millipore, Billerica, Mass.) using standard protocols.
The following antibodies were purchased from commercial sources: phospho-Rb (Ser795), phospho-Rb (Ser807/811) (Cell Signaling Technology, Beverly, Mass.); Cdk2, p57 (Santa Cruz Biotechnology, Santa Cruz, Calif.); p21, p27, total Rb (BD PharMingen, San Diego, Calif.); β-actin (Clone AC-15, Sigma-Aldrich).
Membranes were probed with secondary anti-rabbit or anti-mouse horseradish peroxidase-conjugated antibodies (GE Healthcare-Amersham Biosciences, Piscataway, N.J.), and developed using a chemiluminescence Western blotting detection system.
To determine equal loading of total protein samples, blots were re-probed with monoclonal antibody against β-actin at a dilution of 1:2000. If necessary, membranes were processed in stripping buffer (62.5 mM Tris-HCI and 100 mM β-mercaptoethanol/2% SDS, pH 6.7) at 50° C. before being re-probed.
To quantify expression levels or kinase activity, the optical density of each band was determined by densitometry and analyzed by QuickOne (Bio-Rad Laboratories). Each value was normalized to β-actin from the same blot. To report the changes due to OGF treatment, we calculated the fold increase by dividing the normalized value from the OGF treated samples by the normalized value of control samples at each time point; thus, increases due to OGF have values greater than one, and decreases due to OGF have values less than one. For all Western blot analyses, 3 or more independent experiments were performed.
(§3) The p21-targeted siRNAs were obtained from Santa Cruz Biotechnology, and negative control siRNAs were purchased from Ambion (Ambion, Inc., Austin, Tex.). For transfection, 2×10^5 cells per well were seeded in 6-well plates containing 1 ml of media without antibiotics. For each well, 1 μl of siRNA stock (20 μM) was mixed with 175 μl of serum-free media. Two μl of Oligofectamine reagent (Invitrogen, Carlsbad, Calif.) was added to prewashed cells in each well, making the final concentration for siRNA approximately 20 nM. Cells were incubated for 4 hours at 37° C. prior to the addition of OGF. Eighteen hours later, 1 ml fresh complete media with or without OGF was added to the cultures; media and OGF were replaced daily. At the indicated time points, cells were collected for growth curves or Western blotting.

SCC-1 cells [3] = assay: Growth curves of SCC-1 cells (viable cell counts, hemacytometer); assay type: cell-based, human; conditions: 10^-6 M OGF
Method: The SCC-1 (UM-SCC-1) cell line was obtained from the University of Michigan Cancer Research Laboratory, and CAL-27 and SCC-4 cells were obtained from the American Type Culture Collection (Manassas, Va.). SCC-1 and CAL-27 cells were cultured in DMEM media, whereas SCC-4 cells were grown in 1:1 Hams F-12 DMEM media. All media was supplemented with 10% fetal bovine serum (HyClone, Logan, Utah), 1.2% sodium bicarbonate, and 5000 units/ml penicillin, 5 μg/ml streptomycin and 10 μg/ml neomycin. OGF was purchased from Sigma-Aldrich (St. Louis, Mo.), dissolved in sterile water, and used at a final concentration of 10^−6 M.
as §2, with “Cell growth and flow cytometry. For” for “For”, “˜2×10^5” for “2×10^5”, “h” for “hours”

Capan-2 cells = assay: Growth curves of Capan-2 cells transfected with p21 siRNA or negative control siRNA; assay type: cell-based, human
Method: as §1, §3

[4] = linear regression of growth data

[Met^5]-enkephalin [OGF]
Cell numbers vs control levels (SCC-1 cells [1]; FIG. 4 growth curves, p<0.05): significantly reduced | reduction in growth (SCC-1 cells [1]; 72 h): 24% | reduction in growth (SCC-1 cells [1]; 96 h): 40% | level of the p16/Cdk4 complex (p16/Cdk4 complex; 3, 6, 9, and 12 h, significant (p<0.05) at 9 and 12 h): elevated at all time points; also recorded: increased at all time points | level of the cyclin D1/Cdk4 complex (p16/Cdk4 complex; after treatment with OGF): no change | cell numbers compared to control cultures ([2]; 48 hours): 66% | cell numbers compared to control cultures ([2]; 72 hours): 55% | mean doubling time [2, 4]: 51 h | expression of the cell cycle inhibitor p27 (p21; OGF treatment): no significant effect | expression of Cdk2 protein (p21; following OGF exposure): did not change | p21 expression (p21; synchronized BxPC-3 cells, 9 hours, 10^-6 M OGF, 10^-5 M naloxone): significantly upregulated; also recorded: significantly elevated | Cell number compared to controls (SCC-1 cells [3]; 72 h): 87.5% | Cell number compared to controls (SCC-1 cells [3]; 96 h): 59.0% | mean doubling time (SCC-1 cells [3]; [4]): approximately 41.3 h | effect on growth (Capan-2 cells; Capan-2 cells transfected with negative control siRNA, 48, 72, and 96 hours): did depress growth | effect on growth of cells lacking p21 (Capan-2 cells; Capan-2 cells transfected with p21 siRNA): no inhibitory action
